# Molecular target: T1, human FSH receptor (Homo sapiens, UniProt P23945)
# T1 construct: expressed in transfected cells
# T1 sequence (P23945 18-695): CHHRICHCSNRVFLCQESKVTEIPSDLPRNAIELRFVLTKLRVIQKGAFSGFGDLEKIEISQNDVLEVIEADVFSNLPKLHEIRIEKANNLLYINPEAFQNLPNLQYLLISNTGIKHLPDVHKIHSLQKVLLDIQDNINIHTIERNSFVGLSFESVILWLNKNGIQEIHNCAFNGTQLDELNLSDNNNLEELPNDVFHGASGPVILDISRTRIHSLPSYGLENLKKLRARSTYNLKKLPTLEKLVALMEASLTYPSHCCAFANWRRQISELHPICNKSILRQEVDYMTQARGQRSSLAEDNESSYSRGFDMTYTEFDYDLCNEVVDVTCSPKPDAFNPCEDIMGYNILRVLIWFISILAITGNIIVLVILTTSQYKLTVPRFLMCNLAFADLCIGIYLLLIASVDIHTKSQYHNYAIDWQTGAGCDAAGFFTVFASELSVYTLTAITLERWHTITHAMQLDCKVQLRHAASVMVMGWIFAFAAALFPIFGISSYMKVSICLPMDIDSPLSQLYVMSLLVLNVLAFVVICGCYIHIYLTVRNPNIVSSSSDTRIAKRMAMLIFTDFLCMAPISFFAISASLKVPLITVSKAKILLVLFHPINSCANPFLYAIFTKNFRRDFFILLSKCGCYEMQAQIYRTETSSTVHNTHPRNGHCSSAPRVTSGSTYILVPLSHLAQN
# Experiment: hFSHRago (CHO luc): agonistic activity at the human FSH receptor expressed in CHO cells, CRE-luciferase reporter
# Assay type: cell-based
# Details: CHO cells stably transfected with human FSH receptor and CRE/luciferase reporter; 4 hours of incubation
row,SMILES,EC50 [µM]
1,"COc1cc2c(cc1NC(=O)CN1CCC1)-c1c(-c3cccs3)cc(C(=O)N(C)C(C)(C)C)n1CC2 [Example 97, 9-(2-Azetidin-1-yl-acetylamino)-8-methoxy-1-thiophen-2-yl-5,6-dihydro-pyrrolo[2,1-α]isoquinoline-3-carboxylic acid tert-butyl-methyl-amide]",0.004
2,"COCC(=O)Nc1cc2c(cc1OC)CCn1c(C(=O)N(C)C(C)(C)C)cc(-c3cccs3)c1-2 [Example 98, 8-Methoxy-9-(2-methoxy-acetylamino)-1-thiophen-2-yl-5,6-dihydro-pyrrolo[2,1-α]isoquinoline-3-carboxylic acid tert-butyl-methyl-amide]",0.0014
3,"CCOC(=O)Nc1cc2c(cc1OC)CCn1c(C(=O)N3CCCC3(C)C)cc(-c3cccs3)c1-2 [Example 99, [3-(2,2-Dimethyl-pyrrolidine-1-carbonyl)-8-methoxy-1-thiophen-2-yl-5,6-dihydro-pyrrolo[2,1-α]isoquinolin-9-yl]-carbamic acid ethyl ester]",0.022
4,"COc1cc2c(cc1NS(C)(=O)=O)-c1c(-c3cccs3)cc(C(=O)N3CCCC3(C)C)n1CC2 [Example 100, N-[3-(2,2-Dimethyl-pyrrolidine-1-carbonyl)-8-methoxy-1-thiophen-2-yl-5,6-dihydro-pyrrolo[2,1-α]isoquinolin-9-yl]-methanesulfonamide]",0.001
5,"COc1cc2c(cc1NC(=O)CN1CCOCC1)-c1c(-c3cccs3)cc(C(=O)N3CCCC3(C)C)n1CC2 [Example 101, N-[3-(2,2-Dimethyl-pyrrolidine-1-carbonyl)-8-methoxy-1-thiophen-2-yl-5,6-dihydro-pyrrolo[2,1-α]isoquinolin-9-yl]-2-morpholin-4-yl-acetamide]",0.002
6,"CN(C(=O)c1cc(-c2cccs2)c2n1CCc1ccc(NS(=O)(=O)N(C)C)cc1-2)C(C)(C)C [Example 103, 9-Dimethylaminosulfonylamino-1-thiophen-2-yl-5,6-dihydro-pyrrolo[2,1-α]isoquinoline-3-carboxylic acid tert-butyl-methyl-amide]",0.756
7,"COc1cc2c(cc1OC)-c1c(-c3cccs3)cc(C(=O)N3CCCN(C(=O)C4(C)CCC4)CC3)n1CC2 [Example 104, (8,9-Dimethoxy-1-thiophen-2-yl-5,6-dihydro-pyrrolo[2,1-α]isoquinolin-3-yl)-[4-(1-methyl-cyclobutanecarbonyl)-[1,4]diazepan-1-yl]-methanone]",0.003
8,"COc1cc2c(cc1OC)-c1c(-c3cccs3)cc(C(=O)N3CCC[C@H](NC(=O)C4CCC4)C3)n1CC2 [Example 105, Cyclobutanecarboxylic acid [(S)-1-(8,9-dimethoxy-1-thiophen-2-yl-5,6-dihydro-pyrrolo[2,1-α]isoquinoline-3-carbonyl)-piperidin-3-yl]-amide]",1.73
9,"COc1cc2c(cc1OC)-c1c(-c3cccs3)cc(C(=O)N3CC[C@@H](NC(=O)N(C)C)C3)n1CC2 [Example 106, 3-[(R)-1-(8,9-Dimethoxy-1-thiophen-2-yl-5,6-dihydro-pyrrolo[2,1-α]isoquinoline-3-carbonyl)-pyrrolidin-3-yl]-1,1-dimethyl-urea]",0.755
10,"COc1cc2c(cc1OC)-c1c(-c3cccs3)cc(C(=O)N3CCC[C@@H](N(C)C(C)=O)C3)n1CC2 [Example 107, N-[(R)-1-(8,9-Dimethoxy-1-thiophen-2-yl-5,6-dihydro-pyrrolo[2,1-α]isoquinoline-3-carbonyl)-piperidin-3-yl]-N-methyl-acetamide]",0.0309
11,COc1cc2c(cc1OC)-c1c(Br)cc(C(=O)O)n1CC2 [Example 108b],0.0992
12,COc1cc2c(cc1OC)-c1c(Br)cc(C(=O)N3CCCN(C(=O)C4CCC4)CC3)n1CC2 [Example 108c],0.1
13,"C#Cc1cc(C(=O)N2CCCN(C(=O)c3ccccc3)CC2)n2c1-c1cc(OC)c(OC)cc1CC2 [Example 109, (4-Benzoyl-[1,4]diazepan-1-yl)-(1-ethynyl-8,9-dimethoxy-5,6-dihydro-pyrrolo[2,1-α]isoquinolin-3-yl)-methanone]",0.0762
14,"COc1cc2c(cc1OC)-c1c(C3=CCCCC3)cc(C(=O)N(C)C(C)(C)C)n1CC2 [Example 110, 1-Cyclohex-1-enyl-8,9-dimethoxy-5,6-dihydro-pyrrolo[2,1-α]isoquinoline-3-carboxylic acid tert-butyl-methyl-amide]",0.0765
15,"COc1cc2c(cc1OC)-c1c(-c3cccs3)cc(C(=O)N3CCCN(C(=O)C4CCC4)CC3)n1CC2 [Example 111a, (4-Cyclobutanecarbonyl-[1,4]diazepan-1-yl)-(8,9-dimethoxy-1-thiophen-2-yl-5,6-dihydro-pyrrolo[2,1-α]isoquinolin-3-yl)-methanone]",0.0029
16,"COc1cc2ccn3c(C(=O)N4CCCN(C(=O)C5CCC5)CC4)cc(-c4cccs4)c3c2cc1OC [Example 111b, (4-Cyclobutanecarbonyl-[1,4]diazepan-1-yl)-(8,9-dimethoxy-1-thiophen-2-yl-pyrrolo[2,1-α]isoquinolin-3-yl)-methanone]",0.0049
17,"CCOc1cc2c(cc1OC)CCn1c(C(=O)N(CC)C(C)C)c(C(C)=O)c(-c3cccs3)c1-2 [Example 112, 2-Acetyl-9-ethoxy-8-methoxy-1-thiophen-2-yl-5,6-dihydro-pyrrolo[2,1-α]isoquinoline-3-carboxylic acid ethyl-isopropyl-amide]",0.2
18,"COc1cc2c(cc1OC(F)F)-c1c(-c3nccs3)cc(C(=O)N(C)C(C)(C)C)n1CC2 [Example 113, 9-Difluoromethoxy-8-methoxy-1-thiazol-2-yl-5,6-dihydro-pyrrolo[2,1-α]isoquinoline-3-carboxylic acid tert-butyl-methyl-amide]",0.0396
19,"CCN(C(=O)c1cc(-c2cccs2)c2n1CCc1c-2cc(OC)c(OC)c1C)C(C)C [Example 114, 8,9-Dimethoxy-7-methyl-1-thiophen-2-yl-5,6-dihydro-pyrrolo[2,1-α]isoquinoline-3-carboxylic acid ethyl-isopropyl-amide]",0.321
20,"CCN(C(=O)c1cc(-c2cccs2)c2n1CCc1c-2cc(OC)c(OC)c1F)C(C)C [Example 115, 7-Fluoro-8,9-dimethoxy-1-thiophen-2-yl-5,6-dihydro-pyrrolo[2,1-α]isoquinoline-3-carboxylic acid ethyl-isopropyl-amide]",0.937
21,"CCN(C(=O)c1cc(-c2ccsc2)c2n1CCc1cc(OC)c(OC)c(F)c1-2)C(C)C [Example 116, 10-Fluoro-8,9-dimethoxy-1-thiophen-3-yl-5,6-dihydro-pyrrolo[2,1-α]isoquinoline-3-carboxylic acid ethyl-isopropyl-amide]",0.318
22,"CCN(C(=O)c1cc(-c2ccsc2)c2n1CCc1cc(Br)c(OC)cc1-2)C(C)C [Example 117, 8-Bromo-9-methoxy-1-thiophen-3-yl-5,6-dihydro-pyrrolo[2,1-α]isoquinoline-3-carboxylic acid ethyl-isopropyl-amide]",1.1
23,"COc1cc2c(cc1OC)-c1c(-c3ccc(F)cc3F)cc(C(=O)N(C)C(C)(C)C)n1CC2 [Example 118, 1-(2,4-Difluoro-phenyl)-8,9-dimethoxy-5,6-dihydro-pyrrolo[2,1-α]isoquinoline-3-carboxylic acid tert-butyl-methyl-amide]",0.0483

# — patent US8394789B2, “(Dihydro)pyrrolo[2,1-α]isoquinolines” (MSD Oss B.V., priority 2008, dated 2013)
